In US8906919B2, “Treatment of non-neuronal and non-myocardial cell, tissue and organ damage and associated pain with persistent sodium current blockers” (Ozteo Pty Ltd, priority 2009, dated 2014):
Where two headings read alike, the source gives them in different places.

What was measured:
[1] = system: kidney tissue; conditions: rat, iv before ischaemia (riluzole 5 mg/kg, lidocaine 1 mg/kg, lamotrigine 20 mg/kg)
Protocol: (§1) Additional studies were performed on kidney tissue in 48 isoflurane-anaesthetised, male Wistar albino rats (300-350 g). […] A further ten minutes was allowed for drug circulation prior to the induction of ischaemia. Tissue ischaemia was produced in all animals by occluding the renal artery to the left kidney. Immediately prior to occlusion, a 1,000 unit bolus of IV heparin was injected to prevent blood clotting and to permit reperfusion. Occlusion was maintained for 3 hours following which, in 6 animals in each group, the occlusion was released and reperfusion of the kidney was allowed. Samples of reperfused tissue were excised 45 minutes following reperfusion. Samples of non-reperfused ischaemic tissue were excised 3 hours post occlusion. Samples of ischaemic tissue and of reperfused tissue were taken from different animals. Samples of non-ischaemic, non-treated tissue were excised from the right kidney of the non-treated group.
In addition, persistent sodium current blockade was assessed for its affect on kidney tissue DNA fragmentation during ischaemia and reperfusion. […] All panels were illuminated by light with wavelength around 520 nm to show DNA fragmentation.

[2] = system: kidney tissue; conditions: rat; for kidney glutathione levels compared with non-treated reperfused group: 3 h ischaemia and 45 min reperfusion (FIG. 9)
Protocol: as §1
Persistent sodium current blockade was evaluated for its effect on kidney tissue glutathione levels during ischaemia and reperfusion.

[3] = 3 hours of ischaemia and 45 minutes of reperfusion (FIG. 10)
[4] = 3 hours of ischaemia and no reperfusion (FIG. 10)
[5] = iv before ischaemia (riluzole 5 mg/kg, lidocaine 1 mg/kg, lamotrigine 20 mg/kg)

Row | SMILES | damaged nuclei (DNA fragmentation) in renal tubules compared with non-treated tissue [1, 3] | damaged nuclei (DNA fragmentation) in renal tubules compared with non-treated tissue [1, 4] | kidney glutathione levels compared with non-treated, non-ischaemic and non-reperfused group ([2]; iv before ischaemia (riluzole 5 mg/kg, lidocaine 1 mg/kg), 3 h ischaemia and 45 min reperfusion (FIG. 9, vs 901)) | kidney glutathione levels compared with non-treated reperfused group [2, 5] | kidney glutathione levels after ischaemia ([2]; iv before ischaemia (riluzole 5 mg/kg, lidocaine 1 mg/kg, lamotrigine 20 mg/kg), 3 h renal artery occlusion, no reperfusion (FIG. 8))
1 | CCN(CC)CC(=O)Nc1c(C)cccc1C [lidocaine] | considerably fewer damaged nuclei | considerably fewer damaged nuclei | not significantly different | significantly higher | not significantly reduced
2 | Nc1nnc(-c2cccc(Cl)c2Cl)c(N)n1 [lamotrigine] | the reduction in damaged nuclei is still significant | the reduction in damaged nuclei is still significant | – | substantially higher | –
